According to US9474814B2, “Differential evaporation potentiated disinfectant system” (XY, LLC, priority 2007, dated 2016):
Where two headings read alike, the source gives them in different places.

Assays:
[1] = n-octanol/water; cited from earlier work
[2] = neat substance; BuAc (reference) = 1.00; cited from earlier work
[3] = flash point; cited from earlier work
[4] = cited from earlier work
[5] = tested on: Staphylococcus aureus (ATCC 6538), Pseudomonas aeruginosa (ATCC 9027), Salmonella Choleraesuis (ATCC 13312); assay: Coverslip assay: composition applied to dried bacteria on glass coverslips, evaporated to dryness, nutrient agar contact; format: cell-based
Description: These bacteria cultures can be diluted to obtain concentrations of about 10^7 through about 10^3 CFU/ml and 10 μl of each dilution can be spread onto a glass coverslip with a sterile loop and allowed to dry. Afterwards, the coverslips containing 10^5 to 10^2 CFU can be placed inside of petri dish. Different concentrations of the amount of substance can be applied to the cover slips with a nebulizer as described by Germicidal Spray Products as Disinfectants, Method 961.02, AOAC International (2004). As a non-limiting example, isopropyl alcohol (IPA) and diacetone alcohol (DAA) can be assessed as above described by obtaining aqueous mixtures of IPA at concentrations of 55% w/w, 20% w/w, and 5% w/w. […] A nutrient agar lightly pressed against the coverslips allows contact of microorganisms on the coverslips with the nutrient agar. The nutrient agar can be incubated for 48 hours at 37° C. in contact with the coverslips and then observed for microbial reproduction in the region where the coverslips contact the nutrient agar. Untreated coverslips can be used as a positive control. Particular examples of utilizing the method are set forth below.

[6] = Relative evaporation rates; format: physicochemical; settings: BuAc (reference) = 1.00
Text: (§1) Line C represents the change in fluid volume of a 20% (v/v) solution of diacetone alcohol in water caused by evaporation (a particular embodiment of the inventive differential evaporation antimicrobial composition), while line D represents the change in fluid phase concentration of the same 20% (v/v) diacetone alcohol in water occurring during the same fluid volume change. In this case, complete evaporation can occur in approximately 75 time units. Comparatively, the 20% (v/v) diacetone alcohol in water can be engaged with a population of microorganisms for a greater duration of time than the conventional antimicrobial composition without reapplication of an additional amount because evaporation occurs at a slower rate as shown by Table 3.

[7] = tested on: Staphylococcus aureus (ATCC 6538); assay: Potentiation Assay (non-evaporative vs evaporative procedure); format: cell-based; settings: for Evaporated Log 10 Reduction: evaporated in centrifuge 60 minutes; for Non-evaporated Log 10 Reduction: set 60 minutes; for evaporative potentiation of antimicrobial efficacy: evaporative vs non-evaporative procedure, concentrations tested in water
Description: Now referring primarily to Table 5 and FIG. […] The non-evaporative and evaporative procedures included 50 μL of an overnight Staphylococcus aureus (ATCC 6538, ˜10^9 CFU/mL) culture added to each 2 mL sterile plastic vial with a conical bottom and dried without capping in a centrifuge for 30 minutes. One hundred microliters of the solution being tested was added to each vial (as triplicate vials) either let set for 60 minutes (non-evaporative) or evaporated in a centrifuge for 60 minutes (evaporative), with time to evaporate being determined by each DAA mixtures own evaporative characteristic. To the non-evaporated vials, 400 μL Mueller Hinton Broth (MHB) was added to the vial and 100 μL was plated onto Nutrient agar (NA). To the evaporated vials, 500 μL of MHB was added and 100 μL was plated onto NA. Plates were incubated overnight at ˜37° C. and counted (the “Potentiation Assay”).

[8] = Evaporation of fluid volume over time (FIG. 2); format: physicochemical
Text: as §1
By comparison, Line C represents the change in fluid volume of a 20% (v/v) solution of diacetone alcohol in water, while line D represents the change in concentration of diacetone alcohol in water. As to this non-limiting example, if 10% diacetone alcohol (v/v) is the minimum concentration to provide an antimicrobial composition, then the entire 75 time units provide an antimicrobial composition because the concentration of diacetone alcohol increases over the 75 time units in accordance with embodiments of differential evaporation potentiated antimicrobial compositions.

[9] = azeotrope in water, Table 2, listed as Diacetone Alcohol
[10] = 6% v/v active component, 94% water
[11] = 10% v/v active component, 90% water
[12] = 3% v/v active component, 97% water
[13] = 15% v/v active component, 85% water
[14] = 70% v/v active component, 30% water
[15] = 20% v/v active component, 80% water

CC(C)=O [Acetone, reference compound]
Log P [1]: −0.23
Relative Evaporation Rates [2]: 11.60
FP [3]: −18 °C

CC(=O)CC(C)(C)O [DAA, 4-hydroxy-4-methyl-2-pentanone]
azeotrope % mol/mol ([4]; azeotrope in water, Table 2): 2.2% mol/mol
azeotrope % vol/vol [4, 9]: 13.43% vol/vol
azeotrope % w/w [4, 9]: 12.70% w/w
azeotrope % w/w ([4]; azeotrope in water, Table 2, listed as diacetone alcohol): about 12.70 % w/w
azeotrope point ([4]; diacetone alcohol and water): about 12.7 grams per 100 grams of the com
Evaporated from coverslip [5, 10]: X (denotes a plate where the number of colonies represented less than 50% of the number of colonies counted in the corresponding positive control plate, representing reduction of the number of microorganisms (<2 Log10 reduction).)
Evaporated from coverslip [5, 11]: XX (denotes a plate where the number of colonies represented less than 10% of the number of colonies counted in the corresponding positive control plate, representing a significant reduction of the number of microorganisms (>3 Log10 reduction).)
Evaporated from coverslip ([5]; 60% v/v active component, 40% water): XXX (denotes a plate in which zero colonies were present, representing complete reduction of the number of microorganisms (>5 Log10 reduction).)
reduction of populations of microorganisms, comparison ([5]; concentrations at which water evaporated at a greater rate than DAA from the mixture): greater reduction of populations of microorganisms than 70% IPA (v/v)
Log P [1]: about −0.14
Relative Evaporation Rates (estimated) ([6]; 20% (v/v)): 0.31
Relative Evaporation Rates (estimated) ([6]; 40% (v/v)): 0.27
Relative Evaporation Rates [2]: 0.14
Evaporated Log 10 Reduction [7, 12]: X (denotes a plate where the number of colonies represented less than 50% of the number of colonies counted in the corresponding positive control plate, representing reduction of the number of microorganisms (<2 Log10 reduction).)
Non-evaporated Log 10 Reduction [7, 12]: ---0--- (denotes a plate where the numbers of colonies represented more than 50% of the number of colonies counted in the corresponding positive control plate, representing no significant reduction in the population of viable microorganisms (0 to 1 Log10 reduction).)
Evaporated Log 10 Reduction [7, 10]: X (denotes a plate where the number of colonies represented less than 50% of the number of colonies counted in the corresponding positive control plate, representing reduction of the number of microorganisms (<2 Log10 reduction).)
Non-evaporated Log 10 Reduction [7, 10]: ---0--- (denotes a plate where the numbers of colonies represented more than 50% of the number of colonies counted in the corresponding positive control plate, representing no significant reduction in the population of viable microorganisms (0 to 1 Log10 reduction).)
Evaporated Log 10 Reduction [7, 11]: XX (denotes a plate where the number of colonies represented less than 10% of the number of colonies counted in the corresponding positive control plate, representing a significant reduction of the number of microorganisms (>3 Log10 reduction).)
Non-evaporated Log 10 Reduction [7, 11]: ---0--- (denotes a plate where the numbers of colonies represented more than 50% of the number of colonies counted in the corresponding positive control plate, representing no significant reduction in the population of viable microorganisms (0 to 1 Log10 reduction).)
Evaporated Log 10 Reduction [7, 13]: XXX (denotes a plate in which zero colonies were present, representing complete reduction of the number of microorganisms (>5 Log10 reduction).)
Non-evaporated Log 10 Reduction [7, 13]: XXx (denotes a plate where the number of colonies represented less than 1% of the number of colonies counted in the corresponding positive control plate, representing nearly complete reduction of the number of microorganisms (>4 Log10 reduction).)
evaporative potentiation of antimicrobial efficacy [7]: can be potentiated by evaporation
complete evaporation ([8]; 20% (v/v) in water): approximately 75 time units

CC(C)O [Isopropanol, 2-propanol, reference compound]
Azeotrope with Water % v/v ([4]; Table 1): 83% v/v
Azeotrope with Water % w/w ([4]; Table 1): 87% w/w
Evaporated from coverslip [5, 10]: ---o---
Evaporated from coverslip ([5]; 25% v/v active component, 75% water): ---o---
Evaporated from coverslip [5, 14]: X (denotes a plate where the number of colonies represented less than 50% of the number of colonies counted in the corresponding positive control plate, representing reduction of the number of microorganisms (<2 Log10 reduction).)
reduction of the population of viable microorganisms ([5]; concentrations of 6% and 25% in water): did not reduce the population of viable microorganisms
FP [3]: 21 °C
Evaporated Log 10 Reduction [7, 11]: ---0--- (denotes a plate where the numbers of colonies represented more than 50% of the number of colonies counted in the corresponding positive control plate, representing no significant reduction in the population of viable microorganisms (0 to 1 Log10 reduction).)
Non-evaporated Log 10 Reduction [7, 11]: ---0--- (denotes a plate where the numbers of colonies represented more than 50% of the number of colonies counted in the corresponding positive control plate, representing no significant reduction in the population of viable microorganisms (0 to 1 Log10 reduction).)
Evaporated Log 10 Reduction [7, 15]: ---0--- (denotes a plate where the numbers of colonies represented more than 50% of the number of colonies counted in the corresponding positive control plate, representing no significant reduction in the population of viable microorganisms (0 to 1 Log10 reduction).)
Non-evaporated Log 10 Reduction [7, 15]: XXX (denotes a plate in which zero colonies were present, representing complete reduction of the number of microorganisms (>5 Log10 reduction).)
Evaporated Log 10 Reduction [7, 14]: XXX (denotes a plate in which zero colonies were present, representing complete reduction of the number of microorganisms (>5 Log10 reduction).)
Non-evaporated Log 10 Reduction [7, 14]: XXX (denotes a plate in which zero colonies were present, representing complete reduction of the number of microorganisms (>5 Log10 reduction).)
evaporative potentiation of antimicrobial efficacy [7]: cannot be potentiated
complete evaporation ([8]; 70% (v/v) in water): about 15 time units
